Assay results as given in patent US20260297070A1, “CYCLIC [COMPOUND LEFT OUT] WRN INHIBITORS” (Nimbus Wadjet, Inc., priority 2023, published 2026).

Target: T1, human Werner helicase (WRN-BV08, Uniprot Q14191, amino acids 517-1235 with L1074F point mutation) (Homo sapiens, UniProt Q14191, L1074F)
T1 construct: Uniprot Q14191, amino acids 517-1235 with L1074F point mutation; TEV-cleavable 8×His (C, cleaved yes); made in house; host or cells: Sf9 insect cells (baculovirus)
Test: WRN (BV08) ADP-Glo Assay
Format: biochemical
Details: 0.15 nM WRN, 5 μM ATP, 0.1 nM DNA duplex, 15 min preincubation, 60 min at 25° C., pH 7.5, 1% DMSO; read-out: ADP-Glo_hWRN_IC50
Procedure, shortened: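 Helicase ATPase activity is measured at 25 °C over 60 min using 0.15 nM enzyme, 5 μM ATP and 0.1 nM DNA duplex, final DMSO 1%. ADP production is detected by luminescence, with IC50 derived by curve fitting.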

T1 sequence (Q14191 with tags, fused parts or gaps L1074F limits assumed): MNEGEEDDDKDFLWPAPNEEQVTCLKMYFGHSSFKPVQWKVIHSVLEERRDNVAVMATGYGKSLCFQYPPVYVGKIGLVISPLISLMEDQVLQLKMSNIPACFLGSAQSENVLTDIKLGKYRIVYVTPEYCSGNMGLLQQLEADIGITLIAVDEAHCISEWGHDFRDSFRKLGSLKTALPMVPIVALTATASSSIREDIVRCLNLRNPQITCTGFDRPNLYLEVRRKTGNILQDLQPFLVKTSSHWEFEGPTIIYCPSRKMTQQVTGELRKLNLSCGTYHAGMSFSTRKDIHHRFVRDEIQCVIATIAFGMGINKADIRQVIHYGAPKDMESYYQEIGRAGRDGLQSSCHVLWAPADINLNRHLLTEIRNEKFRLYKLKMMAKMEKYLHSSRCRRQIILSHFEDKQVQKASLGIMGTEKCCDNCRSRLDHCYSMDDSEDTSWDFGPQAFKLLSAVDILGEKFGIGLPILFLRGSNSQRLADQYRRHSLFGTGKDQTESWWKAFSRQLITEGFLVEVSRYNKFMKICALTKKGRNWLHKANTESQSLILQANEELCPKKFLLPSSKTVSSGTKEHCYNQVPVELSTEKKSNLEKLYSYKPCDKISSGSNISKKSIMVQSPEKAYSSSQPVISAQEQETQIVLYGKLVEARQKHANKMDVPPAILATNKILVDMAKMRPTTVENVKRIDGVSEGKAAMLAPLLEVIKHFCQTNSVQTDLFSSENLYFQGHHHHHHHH

IC50 | SMILES
> 50 µM | O=C(Cc1c[nH]c2cc(Cl)ccc12)N(Cc1ccncc1)C1C=CS(=O)(=O)C1 (centres unmarked) [I-417, 2-(6-chloro-1H-indol-3-yl)-N-(1,1-dioxo-2,3-dihydro-1lambda6-thiophen-3-yl)-N-[(pyridin-4-yl)methyl]acetamide]
0.5 to 5 µM | COc1cc(CN(C(=O)C2Cc3cc(-c4ccc(F)cc4)ccc32)C2C=CS(=O)(=O)C2)ccn1 (centres unmarked) [I-176, N-(1,1-dioxo-2,3-dihydro-1lambda6-thiophen-3-yl)-3-(4-fluorophenyl)-N-[(2-methoxypyridin-4-yl)methyl]bicyclo[4.2.0]octa-1,3,5-triene-7-carboxamide]
10 to 50 µM | O=C(C(c1ccc(-c2ccc(F)cc2)cc1)C1CC1)N(Cc1ccncc1)C1C=CS(=O)(=O)C1 (centres unmarked) [I-677, 2-cyclopropyl-N-(1,1-dioxo-2,3-dihydro-1lambda6-thiophen-3-yl)-2-{4′-fluoro-[1,1′-biphenyl]-4-yl}-N-[(pyridin-4-yl)methyl]acetamide]
10 to 50 µM | O=C(Cc1ccc(-n2cccc2)cc1)N(Cc1ccccc1CO)C1C=CS(=O)(=O)C1 (centres unmarked) [I-360, N-(1,1-dioxo-2,3-dihydro-1lambda6-thiophen-3-yl)-N-{[2-(hydroxymethyl)phenyl]methyl}-2-[4-(1H-pyrrol-1-yl)phenyl]acetamide]
> 50 µM | COC(C(=O)N(Cc1ccncc1)C1C=CS(=O)(=O)C1)c1ccc(-c2ccc(F)cc2)cc1 (single isomer, unassigned) [I-476, (2R*)-N-[(3R**)-1,1-dioxo-2,3-dihydro-1lambda6-thiophen-3-yl]-2-{4′-fluoro-[1,1′-biphenyl]-4-yl}-2-methoxy-N-[(pyridin-4-yl)methyl]acetamide]
10 to 50 µM | O=C(Cc1ccc(-n2cccc2)cn1)N(Cc1ccncc1)C1C=CS(=O)(=O)C1 (centres unmarked) [I-319, N-(1,1-dioxo-2,3-dihydro-1lambda6-thiophen-3-yl)-N-[(pyridin-4-yl)methyl]-2-[5-(1H-pyrrol-1-yl)pyridin-2-yl]acetamide]
10 to 50 µM | O=C(Cc1ccc(OC(F)F)cc1)N(Cc1ccncc1)C1C=CS(=O)(=O)C1 (centres unmarked) [I-331, 2-[4-(difluoromethoxy)phenyl]-N-(1,1-dioxo-2,3-dihydro-1lambda6-thiophen-3-yl)-N-[(pyridin-4-yl)methyl]acetamide]
10 to 50 µM | CN(C)C(C(=O)N(Cc1ccnc(C(C)(C)O)c1)C1C=CS(=O)(=O)C1)c1ccc(-c2ccc(F)c(F)c2)cc1F (centres unmarked) [I-307, 2-(dimethylamino)-N-(1,1-dioxo-2,3-dihydro-1lambda6-thiophen-3-yl)-N-{[2-(2-hydroxypropan-2-yl)pyridin-4-yl]methyl}-2-{3,3′,4′-trifluoro-[1,1′-biphenyl]-4-yl}acetamide]
> 50 µM | O=C(Cc1ccc(-n2cccc2)cc1)N(c1c[nH]c2ncc(F)cc12)C1C=CS(=O)(=O)C1 (centres unmarked) [I-479, N-(1,1-dioxo-2,3-dihydro-1lambda6-thiophen-3-yl)-N-{5-fluoro-1H-pyrrolo[2,3-b]pyridin-3-yl}-2-[4-(1H-pyrrol-1-yl)phenyl]acetamide]
> 50 µM | O=C([C@H]1[C@@H]2CCC[C@@H]21)N(Cc1ccncc1)C1C=CS(=O)(=O)C1 (stereo partly drawn) [I-583, (1R,5S,6R)-N-(1,1-dioxo-2,3-dihydro-1lambda6-thiophen-3-yl)-N-[(pyridin-4-yl)methyl]bicyclo[3.1.0]hexane-6-carboxamide]
> 50 µM | COc1cc(CN(C(=O)C2Cc3cc(-c4ccc(F)cc4)ccc3O2)C2C=CS(=O)(=O)C2)ccn1 (centres unmarked) [I-399, N-(1,1-dioxo-2,3-dihydro-1lambda6-thiophen-3-yl)-5-(4-fluorophenyl)-N-[(2-methoxypyridin-4-yl)methyl]-2,3-dihydro-1-benzofuran-2-carboxamide]
> 50 µM | O=C(CCCc1c[nH]c2ccccc12)N(Cc1ccncc1)C1C=CS(=O)(=O)C1 (centres unmarked) [I-500, N-(1,1-dioxo-2,3-dihydro-1lambda6-thiophen-3-yl)-4-(1H-indol-3-yl)-N-[(pyridin-4-yl)methyl]butanamide]
< 0.5 µM | CC(C)(O)c1cc(CN(C(=O)Cn2cc(-c3ccccc3)cn2)[C@@H]2C=CS(=O)(=O)C2)ccn1 [I-43, N-[(3R)-1,1-dioxo-2,3-dihydro-1lambda6-thiophen-3-yl]-N-{[2-(2-hydroxypropan-2-yl)pyridin-4-yl]methyl}-2-(4-phenyl-1H-pyrazol-1-yl)acetamide]
< 0.5 µM | O=C(Cn1cc(-c2ccc(F)cc2)cn1)N(Cc1nc(C2CC2)cs1)C1C=CS(=O)(=O)C1 (single isomer, unassigned) [I-602]
> 50 µM | O=C(Cc1ccc(-n2cccc2)cc1)N(C1C=CS(=O)(=O)C1)[C@H]1CCOc2ccccc21 (stereo partly drawn) [I-550, N-[(4S)-3,4-dihydro-2H-1-benzopyran-4-yl]-N-(1,1-dioxo-2,3-dihydro-1lambda6-thiophen-3-yl)-2-[4-(1H-pyrrol-1-yl)phenyl]acetamide]
> 50 µM | COc1cc(CN(C(=O)Cc2ccc(-n3ccc(F)cc3=O)cc2F)C2C=CS(=O)(=O)C2)ccn1 (centres unmarked) [I-453, N-(1,1-dioxo-2,3-dihydro-1lambda6-thiophen-3-yl)-2-[2-fluoro-4-(4-fluoro-2-oxo-1,2-dihydropyridin-1-yl)phenyl]-N-[(2-methoxypyridin-4-yl)methyl]acetamide]
10 to 50 µM | O=C(Cc1ccc(-n2cccc2)cc1)N(Cc1cccc(O)c1)C1C=CS(=O)(=O)C1 (centres unmarked) [I-292, N-(1,1-dioxo-2,3-dihydro-1lambda6-thiophen-3-yl)-N-[(3-hydroxyphenyl)methyl]-2-[4-(1H-pyrrol-1-yl)phenyl]acetamide]
5 to 10 µM | CC(C)(O)c1cc(CN(C(=O)C2Cc3cc(-c4ccc(F)cc4)ccc32)C2C=CS(=O)(=O)C2)ccn1 (centres unmarked) [I-223, N-(1,1-dioxo-2,3-dihydro-1lambda6-thiophen-3-yl)-3-(4-fluorophenyl)-N-{[2-(2-hydroxypropan-2-yl)pyridin-4-yl]methyl}bicyclo[4.2.0]octa-1,3,5-triene-7-carboxamide]
> 50 µM | COc1cc(CN(C(=O)C(c2ccc(-c3ccc(F)c(F)c3)cc2F)n2cc(OC(F)F)cn2)[C@@H]2C=CS(=O)(=O)C2)ccn1 (single isomer, unassigned) [I-696, (2R*)-2-[4-(difluoromethoxy)-1H-pyrazol-1-yl]-N-[(3R)-1,1-dioxo-2,3-dihydro-1lambda6-thiophen-3-yl]-N-[(2-methoxypyridin-4-yl)methyl]-2-{3,3′,4′-trifluoro-[1,1′-biphenyl]-4-yl}acetamide]
0.5 to 5 µM | O=C(Cn1cc(-c2ccc(F)cc2)cn1)N(Cc1ccnc(OC(F)(F)F)c1)C1C=CS(=O)(=O)C1 (centres unmarked) [I-753, N-(1,1-dioxo-2,3-dihydro-1lambda6-thiophen-3-yl)-2-[4-(4-fluorophenyl)-1H-pyrazol-1-yl]-N-{[2-(trifluoromethoxy)pyridin-4-yl]methyl}acetamide]
0.5 to 5 µM | CCc1cccn1-c1ccc(CC(=O)N(Cc2ccnc(OC)c2)C2C=CS(=O)(=O)C2)c(F)c1 (centres unmarked) [I-204, N-(1,1-dioxo-2,3-dihydro-1lambda6-thiophen-3-yl)-2-[4-(2-ethyl-1H-pyrrol-1-yl)-2-fluorophenyl]-N-[(2-methoxypyridin-4-yl)methyl]acetamide]
> 50 µM | O=C(/C=C/c1ccc(C(F)(F)F)cc1)N(Cc1ccncc1)C1C=CS(=O)(=O)C1 (centres unmarked) [I-529, (2E)-N-(1,1-dioxo-2,3-dihydro-1lambda6-thiophen-3-yl)-N-[(pyridin-4-yl)methyl]-3-[4-(trifluoromethyl)phenyl]prop-2-enamide]
< 0.5 µM | O=C(Cn1cc(-c2cc(F)c(F)c(F)c2)cn1)N(Cc1ccc(Cc2ccncc2)cc1)C1C=CS(=O)(=O)C1 (centres unmarked) [I-782, N-(1,1-dioxo-2,3-dihydro-1lambda6-thiophen-3-yl)-N-({4-[(pyridin-4-yl)methyl]phenyl}methyl)-2-[4-(3,4,5-trifluorophenyl)-1H-pyrazol-1-yl]acetamide]
> 50 µM | O=C(Cc1ccc2cc[nH]c2c1)N(Cc1ccncc1)C1C=CS(=O)(=O)C1 (centres unmarked) [I-506, N-(1,1-dioxo-2,3-dihydro-1lambda6-thiophen-3-yl)-2-(1H-indol-6-yl)-N-[(pyridin-4-yl)methyl]acetamide]
0.5 to 5 µM | COc1cc(C(C)N(C(=O)Cn2cc(-c3cc(F)c(F)c(F)c3)cn2)C2C=CS(=O)(=O)C2)ccn1 (single isomer, unassigned) [I-831, N-[(3R**)-1,1-dioxo-2,3-dihydro-1lambda6-thiophen-3-yl]-N-[(1R*)-1-(2-methoxypyridin-4-yl)ethyl]-2-[4-(3,4,5-trifluorophenyl)-1H-pyrazol-1-yl]acetamide]
> 50 µM | O=C(C1CCc2cc(Cl)ccc2O1)N(Cc1ccncc1)C1C=CS(=O)(=O)C1 (centres unmarked) [I-653, 6-chloro-N-(1,1-dioxo-2,3-dihydro-1lambda6-thiophen-3-yl)-N-[(pyridin-4-yl)methyl]-3,4-dihydro-2H-1-benzopyran-2-carboxamide]
< 0.5 µM | CCN(C)C(=O)C(C(=O)N(Cc1ccnc(C(C)(C)O)c1)C1C=CS(=O)(=O)C1)c1ccc(-c2ccc(F)c(F)c2)cc1F (centres unmarked) [I-75, N′-(1,1-dioxo-2,3-dihydro-1lambda6-thiophen-3-yl)-N-ethyl-N′-{[2-(2-hydroxypropan-2-yl)pyridin-4-yl]methyl}-N-methyl-2-{3,3′,4′-trifluoro-[1,1′-biphenyl]-4-yl}propanediamide]
0.5 to 5 µM | Cc1cc(CN(C(=O)Cc2ccc(-n3cccc3)cc2)C2C=CS(=O)(=O)C2)ccn1 (centres unmarked) [I-207, N-(1,1-dioxo-2,3-dihydro-1lambda6-thiophen-3-yl)-N-[(2-methylpyridin-4-yl)methyl]-2-[4-(1H-pyrrol-1-yl)phenyl]acetamide]
> 50 µM | COc1ccccc1CN(C(=O)Cc1ccc(-n2cccc2)cc1)C1C=CS(=O)(=O)C1 (centres unmarked) [I-524, N-(1,1-dioxo-2,3-dihydro-1lambda6-thiophen-3-yl)-N-[(2-methoxyphenyl)methyl]-2-[4-(1H-pyrrol-1-yl)phenyl]acetamide]
